Measured values: ChEMBL document CHEMBL1122404, “Khellin analogues. 1. General topological requirements for lipid-altering activity in furochromones” (1983)

Legend:
[1] = Serum high density lipoprotein (HDL) cholesterol alteration by the compound at 50 mg/kg/day dose in normocholesterolemic Male S.E.A. Japanese quail with 5-7 weeks of age; type: functional, Coturnix
[2] = Serum lipoprotein (VLDL+LDL) cholesterol alteration by the compound at 50 mg/kg/day dose in normocholesterolemic Male S.E.A. Japanese quail with 5-7 weeks of age; type: functional, Coturnix
[3] = Total Serum lipoprotein cholesterol alteration by the compound at 50 mg/kg/day dose in normocholesterolemic Male S.E.A. Japanese quail with 5-7 weeks of age

Structure (SMILES)	T/C [1]	T/C [2]	T/C [3]
COc1c2c(c(OC)c3c(=O)cc(C)oc13)CCO2	1.17	0.74	1.07
COc1c2occc2c(OC)c2c(=O)cc(CN(C)C)oc12	0.92	0.37	0.82
COc1c2occc2c(OC)c2c(=O)cc(C(C)C)oc12	1.4	0.49	1.17
Cc1cc(=O)c2cc3ccoc3cc2o1	1.05	0.84	1.01
COc1c2occc2c(OC)c2c(=O)ccoc12	1.36	0.42	1.15
COc1c2c(c(OC)c3occc13)OC(C)CC2=O (stereo unspecified)	1.45	0.55	1.24
COCc1cc(=O)c2c(OC)c3ccoc3c(OC)c2o1	1.63	0.57	1.35
COc1c2occc2c(OC)c2c(=O)cc(CSc3ccccc3)oc12	1.33	0.43	1.09
COc1c2occc2cc2c(=O)cc(C)oc12	1.19	0.77	1.09
COc1c2occc2c(OC)c2c(=O)cc(C)oc12 [KHELLIN]	1.46	0.37	1.21
COc1c2occc2c(OC)c2c(=O)cc(CSC)oc12 [TIMEFURONE]	1.68	0.47	1.36
COc1c2ccoc2cc2oc(C)cc(=O)c12 [VISNAGIN]	1.42	0.51	1.21
